Test results published in patent publication US5932587A, “Heterocyclic-fused pyridines” (Bayer Aktiengesellschaft, priority 1996, dated 1999).

What was measured:
CETP = assay: Ex vivo activity: CETP activity in serum of treated Syrian golden hamsters; details: ex vivo CETP activity in hamster serum; for ED50 (ex vivo activity): up to 24 hours after administration
Description: Ex vivo activity of the compounds according to the invention
Syrian golden hamsters from in-house breeding are anaesthetized after fasting for 24 hours (0.8 mg/kg of atropine, 0.8 mg/kg of Ketavet® s.c., 30' later 50 mg/kg of Nembutal i.p.). The jugular vein is then exposed and cannulated. The test substance is dissolved in a suitable solvent (as a rule Adalat placebo solution: 60 g of glycerol, 100 ml of H2 O, PEG-400 to 1000 ml) and administered to the animals via a PE catheter inserted in the jugular vein. The control animals receive the same volume of solvent without test substance. The vein is then tied off and the wound is closed.
The administration of the test substances can also be carried out p.o., by orally administering the substances dissolved in DMSO and suspended in 0.5% Tylose by means of a stomach tube. The control animals receive identical volumes of solvent without test substance.
After various times--up to 24 hours after administration--blood (about 250 μl) is taken from the animals by puncture of the retro-orbital venous plexus. Clotting is ended by incubation at 4° C. overnight, then centrifugation is carried out at 6000×g for 10 minutes. In the serum thus obtained, CETP activity is determined by the modified CETP test. As for the CETP test described above, the transfer of ^3 H-cholesterol ester from HD lipoproteins to biotinylated LD lipoproteins is measured.
The reaction is ended by addition of Streptavidin-SPA®beads (Amersham) and the transferred radioactivity is determined directly in the liquid scintillation counter.
The test mixture is carried out as described under "CETP test". For the testing of the serum, only 10 μl of CETP are replaced by 10 μl of the corresponding serum samples. As controls, corresponding incubations with sera of untreated animals are used.
The activity transferred in the control mixtures with control sera is rated as 100% transfer. The substance concentration at which this transfer is reduced to a half is indicated as the ED50 value.

[1] = In vivo activity: oral action on lipoproteins and triglycerides in Syrian golden hamsters (HDL rise); details: dose 2 × 3 mg/kg, hamster, up to 24 hours after administration
Description: In vivo activity of the compounds according to the invention
In experiments to determine the oral action on lipoproteins and triglycerides, test substance dissolved in DMSO and 0.5% Tylose suspended by means of a stomach tube are administered orally to Syrian golden hamsters from in-house breeding. To determine the CETP activity, blood (about 250 μl) is taken by retro-orbital puncture before the start of the experiment. The test substances are then administered orally by means of a stomach tube. The control animals receive identical volumes of solvent without test substance. […]
Clotting is ended by incubation at 4° C. overnight, then centrifugation at 6000×g is carried out for 10 minutes. In the serum thus obtained, the content of cholesterol and triglycerides is determined with the aid of modified commercially available enzyme tests (cholesterol enzymatic 14366 Merck, triglycerides 14364 Merck). […]
100 μl of serum dilution are mixed with 100 μl of test substance in 96-hole plates and incubated at room temperature for 10 minutes. The optical density is then determined at a wavelength of 492 nm using an automatic plate-reading apparatus. The triglyceride or cholesterol concentration contained in the samples is determined with the aid of a standard curve measured in parallel. […]

[2] = target: T1, cholesterol ester transfer protein (CETP) (Homo sapiens, UniProt P11597); assay: CETP inhibition test (transfer of 3H-cholesterol ester from human HDL to biotinylated LDL, SPA); type: biochemical; details: 37° C., 18 h
T1 construct: CETP is obtained from human plasma in partially purified form; from tissue; host or cells: human plasma (partially purified in house by differential centrifugation and column chromatography)
T1 sequence (P11597 18-493): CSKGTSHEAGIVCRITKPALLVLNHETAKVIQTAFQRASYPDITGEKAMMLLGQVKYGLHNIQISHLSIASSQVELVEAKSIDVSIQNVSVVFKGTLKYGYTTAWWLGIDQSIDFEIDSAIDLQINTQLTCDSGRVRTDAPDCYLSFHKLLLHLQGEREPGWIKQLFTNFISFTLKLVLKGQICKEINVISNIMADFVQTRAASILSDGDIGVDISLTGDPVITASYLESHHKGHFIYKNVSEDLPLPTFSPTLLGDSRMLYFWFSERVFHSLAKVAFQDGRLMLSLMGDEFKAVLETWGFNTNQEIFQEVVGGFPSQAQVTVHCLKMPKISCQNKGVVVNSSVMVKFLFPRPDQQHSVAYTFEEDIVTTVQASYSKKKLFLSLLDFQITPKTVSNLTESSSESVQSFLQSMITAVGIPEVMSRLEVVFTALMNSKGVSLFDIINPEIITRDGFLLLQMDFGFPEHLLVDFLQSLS
Description: CETP is obtained from human plasma in partially purified form by differential centrifugation and column chromatography and used for the test. To this end, human plasma is adjusted to a density of 1.21 g per ml using NaBr and centrifuged at 4° C. for 18 h at 50,000 rpm. The bottom fraction (d>1.21 g/ml) is applied to a Sephadex®phenyl-sepharose 4B (Pharmacia) column, washed with 0.15 M NaCl/0.001 M tris HCl pH 7.4 and then eluted with distilled water. The CETP-active fractions are pooled, dialysed against 50 mM Na acetate pH 4.5 and applied to a CM-Sepharose® (Pharmacia) column. The column is then eluted using a linear gradient (0-1 M NaCl). The pooled CETP fractions are dialysed against 10 mM tris HCl pH 7.4 and then further purified by chromatography on a Mono Q® column (Pharmacia).
Obtainment of radiolabelled HDL
50 ml of fresh human EDTA plasma are adjusted to a density of 1.12 using NaBr and centrifuged at 50,000 rpm for 18 h at 4° C. in a Ty 65 rotor. The upper phase is used to obtain cold LDL. The lower phase is dialysed against 3×4 l of PDB buffer (10 mM tris/HCl pH 7.4, […], 1 mM EDTA, 0.02% NaN3). 20 μl of ^3 H-cholesterol (Dupont NET-725; 1 μC/μl dissolved in ethanol) are then added per 10 ml of retentate volume and the mixture is incubated under N2 at 37° C. for 72 h. […]
To test the CETP activity, the transfer of ^3 H-cholesterol ester from human HD lipoproteins to biotinylated LD lipoproteins is measured. The reaction is ended by addition of streptavidin-SPA®beads (Amersham) and the transferred radioactivity is determined directly in a liquid scintillation counter.
In the test mixture, 10 μl of HDL-^3 H-cholesterol ester (~50,000 cpm) are incubated at 37° C. for 18 h with 10 μl of biotin-LDL (Amersham) in 50 mM Hepes/0.15 M NaCl/0.1% bovine serum albumin/0.05% NaN3 pH 7.4 with 10 μl of CETP (1 mg/ml) and 3 μl of solution of the substance to be tested (dissolved in 10% DMSO/1% RSA). 200 μl of the SPA-streptavidin bead solution (TRKQ 7005) are then added, the mixture is incubated further for 1 h with shaking and then measured in the scintillation counter. […]

[3] = In vivo activity in transgenic hCETP mice (change in HDL, LDL, triglycerides); details: 80 ppm in the feed, one week
Description: In vivo activity in transgenic hCETP mice
Transgenic mice from in-house breeding (Dinchuck, Hart, Gonzalez Karmann Schmidt, Wirak; BBA (1995), 1295, 301) were administered the substances to be tested in the feed. Before the start of the experiment, blood was taken retro-orbitally from the mice in order to determine cholesterol and triglycerides in the serum. The serum was obtained as described above for hamsters by incubation at 4° C. overnight and subsequent centrifugation at 6000×g. After one week, blood was again taken from the mice in order to determine lipoproteins and triglycerides. The change in the parameters measured is expressed as a percentage change compared with the starting value.

| SMILES | IC50 [2] [nM] | ED50 (ex vivo activity) (CETP) [mg/kg] | % Inhibition at 10 mg/kg (CETP) [%] | % HDL rise [1] [%] | HDL (percentage change compared with the starting value) [3] | LDL (percentage change compared with the starting value) [3] | Triglycerides (percentage change compared with the starting value) [3] [%] |
| --- | --- | --- | --- | --- | --- | --- | --- |
| CC1CC(O)c2c(nc(C3CCCC3)c(C(O)c3ccc(C(F)(F)F)cc3)c2-c2ccc(F)cc2)N1Cc1ccccc1 (single isomer, unassigned) [Example 21] |  | > 10 | 34.4 |  |  |  |  |
| CC1CC(O)c2c(nc(C3CCCC3)c(Cc3ccc(C(F)(F)F)cc3)c2-c2ccc(F)cc2)N1Cc1ccccc1 (centres unmarked) [Example 20] |  | > 10 | 50.4 | 9.21 | +14.5% | +6.7% | -24.5 |

Continued, in another order:

| IC50 [2] [nM] | SMILES | ED50 (ex vivo activity) (CETP) [mg/kg] | % Inhibition at 10 mg/kg (CETP) [%] | % HDL rise [1] [%] | HDL (percentage change compared with the starting value) [3] | LDL (percentage change compared with the starting value) [3] | Triglycerides (percentage change compared with the starting value) [3] [%] |
| --- | --- | --- | --- | --- | --- | --- | --- |
| 200 | OC1CSCc2nc(C3CCCC3)c(C(F)c3ccc(C(F)(F)F)cc3)c(-c3ccc(F)cc3)c21 (centres unmarked) [Example 12] | < 10 | 49.5 | 12.37 |  |  |  |
| 6000 | O=S1(=O)Cc2nc(C3CCCC3)c(C(O)c3ccc(C(F)(F)F)cc3)c(-c3ccc(F)cc3)c2C(O)C1 (centres unmarked) [Example 14] |  |  |  |  |  |  |
| 850 | OC1CCN(Cc2ccccc2)c2nc(C3CCCC3)c(Cc3ccc(C(F)(F)F)cc3)c(-c3ccc(F)cc3)c21 (centres unmarked) [Example 16] |  |  |  |  |  |  |
